Consider one cell line from the supplement of paper PMC10307832.

Common to all, as to experiment: relative viability (nuclei count vs DMSO), 5 days (fraction); higher = more cells survive
Compound in the assay “Pemetrexed + Crizotinib”: Nc1nc2[nH]cc(CCc3ccc(C(=O)N[C@@H](CCC(=O)O)C(=O)O)cc3)c2c(=O)[nH]1 [Pemetrexed] + C[C@@H](Oc1cc(-c2cnn(C3CCNCC3)c2)cnc1N)c1c(Cl)ccc(F)c1Cl [Crizotinib] (partner 1 µM)
In a few lines:
(§1)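 For relative viability, nuclei counts in treated wells were divided by those in vehicle wells. Lung cancer cell lines had been pin-tool dosed in 1536-well plates the day after seeding and cultured for 5 days, then fixed and stained in one step (final 0.05% Triton X-100, 1% formaldehyde, 1 ug/ml Hoechst) and imaged at 4×. Doses were one drug alone or a fixed anchor-drug dose plus five library-drug doses (not always all listed) in √10 steps, and values are duplicate-plate medians.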

Compound in the assay “Idelalisib + OSI-027”: CC[C@H](Nc1ncnc2[nH]cnc12)c1nc2cccc(F)c2c(=O)n1-c1ccccc1 [Idelalisib] + COc1cccc2cc(-c3nc([C@H]4CC[C@H](C(=O)O)CC4)n4ncnc(N)c34)[nH]c12 [OSI-027] (partner 0.5 µM)
In outline: as §1

Compound in the assay “Idelalisib + Alpelisib”: CC[C@H](Nc1ncnc2[nH]cnc12)c1nc2cccc(F)c2c(=O)n1-c1ccccc1 [Idelalisib] + Cc1nc(NC(=O)N2CCC[C@H]2C(N)=O)sc1-c1ccnc(C(C)(C)C(F)(F)F)c1 [Alpelisib] (partner 2 µM)
In outline:
as §1

Compound in the assay “Pemetrexed + Bortezomib”: Nc1nc2[nH]cc(CCc3ccc(C(=O)N[C@@H](CCC(=O)O)C(=O)O)cc3)c2c(=O)[nH]1 [Pemetrexed] + CC(C)C[C@H](NC(=O)[C@H](Cc1ccccc1)NC(=O)c1cnccn1)B(O)O [Bortezomib] (partner 0.002 µM)
In outline: as §1

Consider UMC-11, for which the relative viability in the assay with Pemetrexed + Crizotinib (first compound 0.002 µM) is 0.603; with Pemetrexed + Crizotinib (first compound 0.006325 µM), 0.635; in the assay with Pemetrexed + Crizotinib (first compound 0.02 µM), 0.666; with Pemetrexed + Crizotinib (first compound 0.06325 µM), 0.715; in the assay with Pemetrexed + Crizotinib (first compound 0.2 µM) it was 0.566; with Idelalisib + OSI-027 (first compound 0.04 µM), 0.429. In addition, the relative viability with Idelalisib + OSI-027 (first compound 0.1265 µM) was 0.491; with Idelalisib + OSI-027 (first compound 0.4 µM), 0.542; in the assay with Idelalisib + OSI-027 (first compound 1.265 µM) it was 0.513; with Idelalisib + OSI-027 (first compound 4 µM) it was 0.42; with Idelalisib + Alpelisib (first compound 0.04 µM) it was 1.15; with Idelalisib + Alpelisib (first compound 0.1265 µM), 0.999. The relative viability is 0.966 with Idelalisib + Alpelisib (first compound 0.4 µM); 0.987 in the assay with Idelalisib + Alpelisib (first compound 1.265 µM); 1.05 with Idelalisib + Alpelisib (first compound 4 µM); 0.573 with Pemetrexed + Bortezomib (first compound 0.002 µM); 0.639 with Pemetrexed + Bortezomib (first compound 0.006325 µM); 0.682 with Pemetrexed + Bortezomib (first compound 0.02 µM). Besides, the relative viability in the assay with Pemetrexed + Bortezomib (first compound 0.06325 µM) was determined as 0.991; in the assay with Pemetrexed + Bortezomib (first compound 0.2 µM) it was 0.698.
